From article PMC7312353, “Lipid Raft Destabilization Impairs Mouse TRPA1 Responses to Cold and Bacterial Lipopolysaccharides” (International Journal of Molecular Sciences, 2020)

Target: mouse TRPA1 (mTRPA1), Transient receptor potential ankyrin 1 cation channel (Mus musculus, UniProt Q8BLA8)
Assay: Fura-2 ratiometric Ca2+ imaging, concentration-response in CHO-K1 cells stably transfected with mTRPA1
Format: cell-based

Chain of mouse TRPA1 (mTRPA1), Transient receptor potential ankyrin 1 cation channel (Q8BLA8 whole entry): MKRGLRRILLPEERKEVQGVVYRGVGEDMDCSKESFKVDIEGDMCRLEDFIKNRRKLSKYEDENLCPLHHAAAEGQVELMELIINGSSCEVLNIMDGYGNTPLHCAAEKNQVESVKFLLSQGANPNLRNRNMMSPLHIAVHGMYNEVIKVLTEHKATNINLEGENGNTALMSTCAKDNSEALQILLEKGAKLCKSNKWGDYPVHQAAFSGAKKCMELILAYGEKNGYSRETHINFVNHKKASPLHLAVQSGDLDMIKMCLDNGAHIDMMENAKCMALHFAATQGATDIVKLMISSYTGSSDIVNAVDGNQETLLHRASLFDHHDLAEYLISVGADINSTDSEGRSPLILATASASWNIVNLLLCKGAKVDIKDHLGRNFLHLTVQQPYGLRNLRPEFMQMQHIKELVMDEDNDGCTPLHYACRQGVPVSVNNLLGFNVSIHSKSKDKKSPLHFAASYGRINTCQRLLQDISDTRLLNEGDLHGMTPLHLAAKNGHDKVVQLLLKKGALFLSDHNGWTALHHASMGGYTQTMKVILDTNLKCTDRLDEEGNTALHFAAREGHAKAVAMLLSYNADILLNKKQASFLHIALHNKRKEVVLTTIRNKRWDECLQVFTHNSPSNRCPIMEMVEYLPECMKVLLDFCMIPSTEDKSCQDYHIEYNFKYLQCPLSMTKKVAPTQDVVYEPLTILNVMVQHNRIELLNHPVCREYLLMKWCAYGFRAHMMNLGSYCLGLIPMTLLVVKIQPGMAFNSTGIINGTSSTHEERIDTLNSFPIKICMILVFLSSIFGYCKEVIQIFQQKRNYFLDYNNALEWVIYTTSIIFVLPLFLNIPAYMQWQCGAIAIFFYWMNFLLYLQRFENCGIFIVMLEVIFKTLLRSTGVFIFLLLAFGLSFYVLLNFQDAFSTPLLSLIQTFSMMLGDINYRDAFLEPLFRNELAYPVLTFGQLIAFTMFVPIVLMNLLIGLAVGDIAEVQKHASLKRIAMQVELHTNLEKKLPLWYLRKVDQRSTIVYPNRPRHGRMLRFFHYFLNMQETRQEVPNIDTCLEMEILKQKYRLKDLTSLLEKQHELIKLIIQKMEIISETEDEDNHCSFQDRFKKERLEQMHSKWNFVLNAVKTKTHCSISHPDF

C=CCN=C=S [AITC, allyl isothiocyanate]
EC50: 4.6 ± 1.1 µM
